A melting point compilation (Tetko et al.; mined from patent text by program, amines drawn as free bases though some values may be those of a salt)

Row | melting point | SMILES
1 | 187 to 189 °C | CC1Cc2cc(S(N)(=O)=O)cc(C(=O)NCC3CCCN3C)c2O1 (centres undefined)
2 | 121 to 123 °C | CC1(c2ccc(OCc3ccccc3)c(C3CO3)c2)OCCO1 (centres undefined)
3 | 175 to 177 °C | Cc1cc(CNC2CC2)cc(C)c1Oc1ccc([N+](=O)[O-])c(Nc2ccc(C#N)cc2)n1
4 | 157 to 158 °C | CC(C)(C)c1ccc(C(O)CCCCN2CCC(=C3c4ccccc4CCc4ccccc43)CC2)cc1 (centres undefined)
5 | 141 to 142 °C | CCOc1ccc(CC(=O)Cc2csc(-c3ccc(OC)c(OC)c3)n2)cc1OCC
6 | 208 to 209 °C | COc1ccc(C(=O)Nc2cccc(O)c2NC(=O)c2ccc(OC)cc2)cc1
7 | 78 to 80.5 °C | CC(C)(C(=O)O)c1ccsc1
8 | > 300 °C | Cn1c(=O)c2cnc(O)n2c2ccccc21
9 | 142 to 144 °C | Cc1c(C)c(N2CCN(c3ccccc3)CC2)c(C)c2c1OC(C)(C)C2O (centres undefined)
10 | 284 °C | CC(=O)Nc1ccc2c(c1)CCC1CC(=O)NN=C21 (centres undefined)
11 | 118 to 120 °C | COc1cc2c(c3c1OC(C)(C)C3)C(c1cccc(SCC(N)=O)c1)=NC(C)(C)C2
12 | 233 °C | Cc1cccc(Cl)c1NC(=O)Nc1cc(NC(C)C)ncn1
13 | 148 to 149 °C | CCOC(=O)COc1ccc(C(=O)Nc2ccccc2Sc2ccc(-c3nnn[nH]3)cc2)cc1
14 | 44 to 45 °C | COc1nc(C)nc(C(F)(F)F)c1I
15 | 50 to 52 °C | CCCCCOc1ccccc1C1=NNC(=O)CC1
16 | 106 to 108 °C | COC(=O)CCSCC(=O)c1ccc2c(c1)CC(=O)N2
17 | 196 to 199 °C | OC(Cn1ccnc1)c1ccc2c(c1)Cc1ccccc1-2 (centres undefined)
18 | 122 to 125 °C | CNC(=O)c1cc(N2CCN(C)CC2)ncc1Br
19 | 37 to 39 °C | CCc1c(CCNC(=O)CCCCC(=O)OC)ccc(OC)c1OC
20 | 156 to 158 °C | CC(C)C(OC(=O)NC1(C(=O)O)CC1)OC(=O)C1CCCCC1 (centres undefined)
21 | 48 to 48.5 °C | C/C=C/OC(=O)/C=C/N(C)C
22 | 118 to 121 °C | CC(O)Cc1nc(Cl)ccc1N (centres undefined)
23 | 188 to 190 °C | Cc1nc2ncnn2c2c1CCN2C1CCCCCCC1
24 | 87 to 90 °C | COc1cc(NC(=O)CCCCCN2CC(C)OC(C)C2)c2nccc(C)c2c1 (centres undefined)
25 | 248 to 250 °C | CC(C)(Cn1c(CO)nc2c(N)nc3ccccc3c21)NC(=O)C1CCCCC1

Row | melting point | SMILES
26 | 144 to 145 °C | Cc1c(Br)ccc(OC(=O)C(C)(C)C)c1C(=O)O
27 | 140 to 143 °C | CCCC(=O)N(C)c1cccc(-c2ccc3nnc(C)n3n2)c1
28 | 114 °C | COc1ccc2ccc(N3C(=O)c4ccccc4C3OC(=O)COCC(C)C)nc2n1 (centres undefined)
29 | 117 to 120 °C | Nc1cccc(OCc2nc3ccccc3s2)c1
30 | 159 to 161 °C | CC(C)C[C@H](NS(=O)(=O)c1cccc2ccccc12)C(=O)N[C@H]1CCCOC1O (some centres undefined)
31 | 272 to 275 °C | O=C(O)c1cc2ccsc2nc1C(=O)O
32 | 62 to 64 °C | O=C(Nc1ccccn1)C(=O)OC1CCCCC1
33 | 162 to 165 °C | c1cc(OC2CCNCC2)c2cn[nH]c2c1
34 | 90 °C | CCCOc1cccc(C(NC2CCN(C)CC2)c2nc3ccccc3s2)c1 (centres undefined)
35 | 239 to 241 °C | CC(C)[C@H](NCc1ccc(Br)cc1)C(=O)O
36 | 105 to 113 °C | CC(C)OC(=O)Cn1c(=O)n(C)c(=O)n(-c2cc(N=c3sc(=S)n4n3CCC=C4)c(F)cc2Cl)c1=O
37 | 109 to 111 °C | CCS(=O)(=O)NC1CCCOc2ccccc21 (centres undefined)
38 | 188 to 189 °C | CN(C)c1ncc(O)c(-c2ccc(Cl)c(Cl)c2)n1
39 | 106 to 107 °C | Cc1c(-c2ccccc2)cccc1-c1ccc2ccccc2c1
40 | 131 to 133 °C | COc1cc(CC(=O)OC(C)(C)C)ccc1NC(=O)Nc1ccccc1C(F)(F)F
41 | 127 to 130 °C | CC(C)(C)OC(=O)N[C@H](C(=O)N1CCC[C@H]1C(=O)NC1CCc2nc(N)ncc2C1)C(c1ccccc1)c1ccccc1 (some centres undefined)
42 | 170 °C | FC(F)(Cc1c[nH]c2ccc(-n3cnnc3)cc12)CN1CCC(OCc2ccccc2)CC1
43 | 147 to 148 °C | CC#CC=NNC(=O)c1cc(OC)cc(Oc2cccc(C(F)(F)F)c2)n1
44 | 190 to 191 °C | O=C(Cc1c(-c2ccccc2)nn(-c2ccccc2)c1-c1ccccc1)Oc1ccccc1C(=O)O
45 | 142 to 143 °C | CCOc1nn(Cc2ccc(OCCc3nc(-c4ccccc4)oc3C)cc2)cc1CCC(=O)O
46 | 314 to 317 °C | O=c1[nH]c2cc(Cl)cc(Cl)c2c(=O)n1Cc1cccc([N+](=O)[O-])c1
47 | 110 °C | COc1ccc(-n2nc(C)cc2-c2ccccc2)cc1
48 | 62 to 66 °C | CC(CC#CC(C)(C)O[Si](C)(C)C(C)(C)C)C1=CCC2C3=CC=C4CC(O[Si](C)(C)C(C)(C)C(C)C)CCC4(C)C3CCC12C (centres undefined)
49 | 106 to 114 °C | CCC(Oc1cc(Cl)cc(Cl)c1Cl)C(=O)O (centres undefined)
50 | 286 to 287 °C | Cc1oc2cc(O)ccc2c(=O)c1C(=O)O

Row | melting point | SMILES
51 | 202 to 203 °C | COC(=O)c1c(-c2ccccc2Cl)c2cc(C)c(C)cc2n(C)c1=O
52 | 247 to 250 °C | Cn1ncc(C(=O)N2CC(F)C2)c1C(=O)Nc1ccn2nc(N3CCOCC3)nc2c1
53 | 150 to 155 °C | COC(=O)c1nccc2c1[nH]c1ccc(Oc3ccc([N+](=O)[O-])cn3)cc12
54 | 174 to 176 °C | CCC(=O)c1cnc2c(OCCO)cccc2c1Nc1ccccc1C
55 | 147 to 149 °C | O=C(CCCCBr)NNC(=O)N1Cc2ccccc2Oc2ccc(Cl)cc21
56 | 182 to 183 °C | COc1cccc2c3c(c(C)nc12)CCN3c1ccccc1C
57 | 140 to 143 °C | Nc1c(SC(F)(F)F)c(C=O)nn1-c1c(Cl)cc(C(F)(F)F)cc1Cl
58 | 105 to 106 °C | Cc1nnc(C=Cc2ccccc2OC[C@@H](O)CN2CCC(c3ccc4ccccc4c3)CC2)o1
59 | 230 to 233 °C | Cn1nccc1-n1ccnc1S(N)(=O)=O
60 | 253 °C | N#Cc1cccc(C2=Nc3cc(N4CCC5(CC4)OCCO5)c(-c4ccccc4F)cc3NC(=O)C2)c1
61 | 180 to 182 °C | O=C(c1ccc(-c2ccccc2)cc1)N1Cc2ccccc2Nc2ccccc21
62 | 105 °C | CC1(C(O)(Cc2ccccc2Cl)Cn2cncn2)CCCCC1 (centres undefined)
63 | 166 to 168 °C | COC(=O)/C(=C/C=C/c1cc2cc(Cl)ccc2[nH]1)OC
64 | 78.4 °C | CC(C)=CCCC(C)=CCCC(C)=CC=CC(C)=CC(=O)O
65 | 91 to 95 °C | CC(C)(C)C(O)c1ccc(CO)cc1 (centres undefined)
66 | 144 to 145 °C | COc1cc(C(=O)c2nccn2C)cc([N+](=O)[O-])c1OC
67 | 60 to 61 °C | CC(C)N(CCN1C(=O)C(=O)c2ccccc21)C(C)C
68 | 303 to 305 °C | CC1CCc2c(-n3cccc3)ccc3c(=O)c(C(=O)O)cn1c23 (centres undefined)
69 | 158 to 161 °C | O=C(c1cc2c(OC[C@@H](O)CN3CCC(c4ccc5ccccc5c4)CC3)cccc2[nH]1)N1CCCC1
70 | 260 °C | COC(=O)c1ccc2c(c1)C(=O)c1ccc(C(=O)OC)cc1C2=O
71 | 117 to 118 °C | CCOC(=O)c1cn(Cc2ccc(Oc3ccccc3)cc2)nc1O
72 | 182 to 188 °C | CC(=O)c1ccc2c(c1)Cc1cc(C#N)ccc1-2
73 | 106 to 107 °C | CC(=O)NCCn1c(C)ccc1C

Row | SMILES | melting point
74 | COC1=CC2=CCC3C(C(F)CC4(C)C(=O)CCC34)C2CC1 (centres undefined) | 173 °C
